# Assay results from patent publication US4418065A, “Halophenyl-pyridyl-allylamine derivatives and use” (priority 1979, dated 1983).
# Counter-ions that a name gives are not always drawn. Like-named read-outs stand apart in the source and are kept apart here.
# Legend:
# [1] = tested on: neuronal uptake of noradrenaline; experiment: Inhibition of the uptake of ^3 H-NA in vitro (slices of mouse midbrain); assay type: biochemical; conditions: for EC50: mouse brain slices, 1×10^-7 M ^3 H-NA, 5 min
# Method: (§1) The test substances were administered intraperitoneally half an hour before the animals were killed. […] The incubation time was 5 minutes with 5 minutes of preincubation before the labelled amines were added. The slices were dissolved in Soluene® and the amounts of radioactive amines taken up were determined by liquid scintillation. […] Active uptake is defined as that part of the radioactive uptake which is inhibited by a high concentration of cocaine.
# (§2) In the in vitro method slices of mouse midbrain were preincubated for 5 minutes with solution of the compound to be tested and then incubated as described above.
# [2] = tested on: neuronal uptake of noradrenaline; experiment: Inhibition of the uptake of ^3 H-NA in vivo (i.p. administration, hypothalamus slices); parameters: species or system mouse; conditions: for ED50: Mus musculus, ip, 0.5 h, read-out: Uptake of ^3 H-NA in vivo ED50; for Percentage inhibition of ^3 H-NA uptake at the highest dose examined: in vivo, at the highest dose examined (the > value, μmole/kg)
# Method: as §1
# [3] = tested on: neuronal uptake of 5-hydroxytryptamine; experiment: Inhibition of the uptake of ^14 C-5-HT in vitro (slices of mouse midbrain); assay type: biochemical; conditions: for EC50: in vitro, mouse brain slices, 1×10^-7 M ^14 C-5-HT, 5 min
# Method: as §1, §2
# [4] = tested on: neuronal uptake of 5-hydroxytryptamine; experiment: Inhibition of the uptake of ^14 C-5-HT in vivo (i.p. administration, hypothalamus slices); parameters: species or system mouse; conditions: for ED50: Mus musculus, ip, 0.5 h, read-out: Uptake of ^14 C-5-HT in vivo ED50; for Percentage inhibition of ^14 C-5-HT uptake at the highest dose examined: in vivo, at the highest dose examined (the > value, μmole/kg)
# Method: as §1
# [5] = i.p., half an hour before the animals were killed, 50 percent decrease of active uptake
EC50 [1] [nM],EC50 [3] [nM],SMILES,"ED50 [2, 5] [µmol/kg]","ED50 [4, 5] [µmol/kg]",further results
2300,500,"CNC/C=C(\c1cccnc1)c1ccc(Cl)cc1Cl [Example 10, (E)-3-(2,4-Dichlorophenyl)-N-methyl-3-(3-pyridyl)allylamine oxalate]",73,18,
,,"CN(C)C/C=C(\c1ccc(Br)cc1)c1cccnc1 [4-Br CH3 E, reference compound]",25,> 98,Percentage inhibition of ^14 C-5-HT uptake at the highest dose examined ([4]; i.p.): 36%
,,"CN(C)C/C=C(/c1ccc(Br)cc1)c1cccnc1 [4-Br CH3 Z, (Z)-3-(4-bromophenyl)-N,N-dimethyl-3-(3-pyridyl)allylamine, reference compound]",> 98,49,Percentage inhibition of ^3 H-NA uptake at the highest dose examined ([2]; i.p.): 26%
,,"CNCC=C(c1ccc(F)cc1)c1cccnc1 [Example 5, 3-(4-Fluorophenyl)-N-methyl-3-(3-pyridyl)allylamine oxalate]",29,72,
300,600,"CNC/C=C(\c1cccnc1)c1ccccc1Br [Example 7, (E)-3-(2-Bromophenyl)-N-methyl-3-(3-pyridyl)allylamine oxalate]",20,102,
,,"CN(C)CCCN1c2ccccc2CCc2ccccc21 [Imipramine, reference compound]",,,ED50 [2]: 63 µmol/kg; ED50 [4]: 125 µmol/kg
,,"CN(C)CC=C(c1ccc(F)cc1)c1cccnc1 [Example 4, 3-(4-Fluorophenyl)-N,N-dimethyl-3-(3-pyridyl)allylamine oxalate]",72,115,
900,500,"CNCC=C(c1cccnc1)c1ccc(Cl)cc1Cl [2,4-di Cl H E/Z 1:1, 3-(2,4-dichlorophenyl)-N-methyl-3-(3-pyridyl)-allylamine]",82,60,
,,"CNC/C=C(\c1ccc(Br)cc1)c1cccnc1 [4-Br H E, reference compound]",25,102,
2200,3500,"CN(C)CC=C(c1cccnc1)c1ccccc1Br [2-Br CH3 E/Z 1:1, 3-(2-bromophenyl)-N,N-dimethyl-3-(3-pyridyl)-allylamine]",79,> 126,
,,"CN(C)C/C=C(\c1cccnc1)c1ccc(Cl)cc1Cl [Example 9, (E)-3-(2,4-Dichlorophenyl)-N,N-dimethyl-3-(3-pyridyl)allylamine oxalate]",> 101,43,
,,"CNC/C=C(/c1ccc(Br)cc1)c1cccnc1 [4-Br H Z, reference compound]",> 101,15,Percentage inhibition of ^3 H-NA uptake at the highest dose examined ([2]; i.p.): 38%
2200,4200,"CN(C)C/C=C(\c1cccnc1)c1ccccc1Br [Example 6, (E)-3-(2-Bromophenyl)-N,N-dimethyl-3-(3-pyridyl)allylamine oxalate]",37,> 98,
,,"CNC/C=C(/c1ccc(Cl)cc1)c1cccnc1.O=C(O)C(=O)O [Example 3, (Z)-3-(4-Chlorophenyl)-N-methyl-3-(3-pyridyl)allylamine oxalate]",23,19,
,,"CN(C)C/C=C(\c1cccnc1)c1cccc(Br)c1 [Example 12, 3-(3-Bromophenyl)-N,N-dimethyl-3-(3-pyridyl)allylamine oxalate]",66,> 98,
1100,1100,"CN(C)C/C=C(/c1ccc(Cl)cc1)c1cccnc1 [Example 2, (Z)-3-(4-chlorophenyl)-N,N-dimethyl-3-(3-pyridyl)allylamine oxalate]",46,34,
900,1400,"CNC/C=C(\c1cccnc1)c1cccc(Br)c1 [Example 8, (Z)-3-(3-Bromophenyl)-N-methyl-3-(3-pyridyl)allylamine oxalate]",58,> 102,
,,"CN(C)CC=C(c1cccnc1)c1ccc(Cl)cc1Cl [2,4-di Cl CH3 E/Z 1:1, 3-(2,4-dichlorophenyl)-N,N-dimethyl-3-(3-pyridyl)-allylamine]",,42,ED50 [2]: 63 µmol/kg

SMILES,EC50 [1] [nM],EC50 [3] [nM],"ED50 [2, 5] [µmol/kg]","ED50 [4, 5] [µmol/kg]",further results
"CN(C)C/C=C(\c1cccnc1)c1cccc(Cl)c1.O=C(O)C(=O)O [Example 1, (Z)-3-(3-chlorophenyl)-N,N-dimethyl-3-(3-pyridyl)allylamine oxalate]",10000,2700,> 110,> 110,Percentage inhibition of ^3 H-NA uptake at the highest dose examined ([2]; i.p.): 41%; Percentage inhibition of ^14 C-5-HT uptake at the highest dose examined ([4]; i.p.): 12%
"CN(C)C/C=C(/c1ccc(I)cc1)c1cccnc1.O=C(O)C(=O)O [Example 11, (Z)-3-(4-iodophenyl)-N,N-dimethyl-3-(3-pyridyl)allylamine oxalate]",> 22000,1300,> 88,46,"Percentage inhibition of ^3 H-NA uptake at the highest concentration examined ([1]; at the highest concentration examined (the > value, μM)): 33%; Percentage inhibition of ^3 H-NA uptake at the highest dose examined ([2]; i.p.): 0%; selectivity of the uptake inhibition (5-HT versus NA), in words ([3]; 5-HT versus NA uptake, brain slices): completely selective inhibitor of the 5-HT uptake"
"CNCC=C(c1cccnc1)c1ccccc1Br [2-Br H E/Z 1:1, 3-(2-bromophenyl)-N-methyl-3-(3-pyridyl)-allylamine]",1400,1500,,> 132,ED50 [2]: 63 µmol/kg
